# Biological target: PDE1B (Homo sapiens, UniProt Q01064)
# Experiment: In vitro HTRF PDE1 inhibition assay (PDE1B)
# Assay type: biochemical
# Conditions: in vitro PDE1B HTRF Assay; read-out: IC50
# From the text: The HTRF PDE1 assay utilized the HTRF (Homogenous Time Resolved Fluorescence) technology, which is based on the competition between unlabeled cyclic nucleotide and cyclic nucleotide labeled with XL665 for the binding to cyclic nucleotide-specific antibody labeled with cryptate. The HTRF signal is thus inversely proportional to the concentration of cyclic nucleotide being measured. Since phosphodiesterases break down cyclic nucleotides, the HTRF signal was used to determine PDE activity.
# The Cisbio cGMP HTRF assay kit (Cat no: 62GM2PEC) was utilized. Cyclic GMP was diluted to 200 nM in HTRF assay buffer (1 mM CaCl2, 10 mM MgCl2, 10 mM Tris-HCl, 0.1% BSA, pH 7.4). […] PDE (1A3, 1B or 1C) was diluted to 2× working concentration in HTRF assay buffer with 2 μg/ml Calmodulin, and 10 μl was added to initiate the reaction. The plate was then incubated for 45 minutes at 27° C. d2-Labelled cyclic GMP and anti-cGMP cryptate were diluted in 50 mM phosphate buffer, 0.8 M KF, 1% Triton X100, 0.2% BSA, pH 7.0. Following incubation 10 μl d2-cGMP, then 10 μl anti cGMP cryptate were added to each well and the plate was incubated for 60 minutes at room temperature. The plate was then read on Perkin Elmer EnVision at 2 different FRET readings ex/em 340 nm/665 nm and 340 nm/615 nm.
# Sequence of PDE1B (Q01064 whole entry): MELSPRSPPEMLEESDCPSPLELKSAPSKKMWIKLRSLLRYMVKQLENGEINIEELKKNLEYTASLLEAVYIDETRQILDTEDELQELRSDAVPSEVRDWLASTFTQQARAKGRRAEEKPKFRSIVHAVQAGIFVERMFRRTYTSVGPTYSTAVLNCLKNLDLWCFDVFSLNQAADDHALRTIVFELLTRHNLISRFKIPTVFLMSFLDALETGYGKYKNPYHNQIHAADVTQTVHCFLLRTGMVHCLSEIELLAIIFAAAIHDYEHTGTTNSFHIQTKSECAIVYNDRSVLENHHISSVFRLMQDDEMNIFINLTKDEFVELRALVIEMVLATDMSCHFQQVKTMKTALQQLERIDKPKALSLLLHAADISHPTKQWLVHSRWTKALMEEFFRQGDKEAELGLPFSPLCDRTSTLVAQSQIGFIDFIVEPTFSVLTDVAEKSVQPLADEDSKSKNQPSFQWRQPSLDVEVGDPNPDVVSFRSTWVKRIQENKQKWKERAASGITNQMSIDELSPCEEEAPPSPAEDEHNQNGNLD
row,SMILES,IC50
1,"Cc1ccc(COc2nn3c(C(C)C)ncc3c(=O)n2C)nc1 [Example 2, 3-Methyl-2-[(5-methylpyridin-2-yl)methoxy]-7-(propan-2-yl)imidazo[5,1-f][1,2,4]triazin-4(3H)-one]",< 1000 nM
2,"CC(C)c1ncc2c(=O)n(C)c(OCCc3ccncc3)nn12 [Example 3, 3-Methyl-7-(propan-2-yl)-2-[2-(pyridin-4-yl)ethoxy]imidazo[5,1-f][1,2,4]triazin-4(3H)-one]",< 1000 nM
3,CC(C)c1ncc2c(=O)n(C)c(OCc3cccnc3)nn12 [Example 5],< 1000 nM
4,CC(C)c1ncc2c(=O)n(C)c(OCC(F)(F)F)nn12 [Example 9],< 1000 nM
5,CC(C)COc1nn2c(C(C)C)ncc2c(=O)n1C [Example 11],< 1000 nM
6,CC(C)c1ncc2c(=O)n(C)c(OCc3ccccn3)nn12 [Example 12],< 1000 nM
7,CC(C)c1ncc2c(=O)n(C)c(OCc3ccc(F)cc3)nn12 [Example 14],< 1000 nM
8,CC(C)c1ncc2c(=O)n(C)c(OCc3ccncc3)nn12 [Example 15],< 1000 nM
9,CCn1c(OCc2ccccc2)nn2c(C(C)C)ncc2c1=O [Example 17],< 1000 nM
10,CCn1c(OCc2cccnc2)nn2c(C(C)C)ncc2c1=O [Example 19],< 1000 nM
11,Cn1c(OCc2ccncc2)nn2c(C3CCOCC3)ncc2c1=O [Example 25],< 1000 nM
12,Cc1ccc(COc2nn3c(C4CCOCC4)ncc3c(=O)n2C)cc1 [Example 27],< 1000 nM
13,Cn1c(OCc2ccc(Cl)cc2)nn2c(C3CCOCC3)ncc2c1=O [Example 28],< 1000 nM
14,Cn1c(OCc2cccc(C#N)c2)nn2c(C3CCOCC3)ncc2c1=O [Example 29],1000 to 10000 nM
15,Cn1c(OCCCc2ccccn2)nn2c(C3CCOCC3)ncc2c1=O [Example 31],< 1000 nM
16,Cn1c(OCC2CC(F)(F)C2)nn2c(C3CCOCC3)ncc2c1=O [Example 33],< 1000 nM
17,Cn1c(OCCC2CCC(F)(F)CC2)nn2c(C3CCOCC3)ncc2c1=O [Example 39],< 1000 nM
18,Cn1c(OCc2cccc(F)c2)nn2c(C3CCOCC3)ncc2c1=O [Example 40],< 1000 nM
19,Cn1c(OCCCc2ccc(F)cn2)nn2c(C3CCOCC3)ncc2c1=O [Example 41],< 1000 nM
20,Cc1ccc(CCCOc2nn3c(C4CCOCC4)ncc3c(=O)n2C)nc1 [Example 42],< 1000 nM
21,Cn1c(OCCCc2ncccc2F)nn2c(C3CCOCC3)ncc2c1=O [Example 43],< 1000 nM
22,Cn1c(OCc2ccc(-c3ccccn3)cc2)nn2c(C3CCOCC3)ncc2c1=O [Example 44],< 1000 nM

row,SMILES,IC50
1,Cn1c(OCCCc2cccnc2)nn2c(C3CCOCC3)ncc2c1=O [Example 46],< 1000 nM
2,Cn1c(OCc2ccc(-c3ccccc3)cc2)nn2c(C3CCOCC3)ncc2c1=O [Example 47],< 1000 nM
3,Cn1c(OCc2ccc(-c3ccc(Cl)cn3)cc2)nn2c(C3CCOCC3)ncc2c1=O [Example 50],< 1000 nM
4,Cn1c(OCc2ccc(-c3ccc(F)cc3)cc2)nn2c(C3CCOCC3)ncc2c1=O [Example 51],1000 to 10000 nM
5,CC(Oc1nn2c(C3CCOCC3)ncc2c(=O)n1C)c1ccc(-c2ccccn2)cc1 (centres unmarked) [Example 52],< 1000 nM
6,Cn1c(OCc2ccc(-c3ccc(F)cn3)cc2)nn2c(C3CCOCC3)ncc2c1=O [Example 53],< 1000 nM
7,CCn1c(OCc2ccc(OC)cc2)nn2c(C3CCOCC3)ncc2c1=O [Example 54],< 1000 nM
8,CCn1c(OCC(C)C)nn2c(C3CCOCC3)ncc2c1=O [Example 55],< 1000 nM
9,CCn1c(OCc2ccc(F)cc2)nn2c(C3CCOCC3)ncc2c1=O [Example 56],< 1000 nM
10,CCn1c(OCc2cc(F)ccc2F)nn2c(C3CCOCC3)ncc2c1=O [Example 57],< 1000 nM
11,CCn1c(OCC2(C)COC2)nn2c(C3CCOCC3)ncc2c1=O [Example 58],< 1000 nM
12,CCn1c(OCc2ccc(F)c(F)c2)nn2c(C3CCOCC3)ncc2c1=O [Example 59],< 1000 nM
13,CCn1c(OCCc2ccncc2)nn2c(C3CCOCC3)ncc2c1=O [Example 60],< 1000 nM
14,CCn1c(OCCCc2ccncc2)nn2c(C3CCOCC3)ncc2c1=O [Example 61],< 1000 nM
15,CCn1c(OCCCOC)nn2c(C3CCOCC3)ncc2c1=O [Example 62],< 1000 nM
16,CCn1c(OCCCc2ccccn2)nn2c(C3CCOCC3)ncc2c1=O [Example 63],< 1000 nM
17,CCn1c(OCCc2ccccn2)nn2c(C3CCOCC3)ncc2c1=O [Example 64],< 1000 nM
18,CCn1c(OCCCc2ncccc2F)nn2c(C3CCOCC3)ncc2c1=O [Example 65],< 1000 nM
19,CCn1c(OCc2ccc(-c3ccccn3)cc2)nn2c(C3CCOCC3)ncc2c1=O [Example 67],< 1000 nM
20,CCn1c(OCCCc2cccnc2)nn2c(C3CCOCC3)ncc2c1=O [Example 68],< 1000 nM
21,CCn1c(OC(C)c2ccc(F)cc2)nn2c(C3CCOCC3)ncc2c1=O (centres unmarked) [Example 69],< 1000 nM
22,CCn1c(OCCc2ccc(F)cc2)nn2c(C3CCOCC3)ncc2c1=O [Example 70],< 1000 nM

row,SMILES,IC50
1,CCn1c(OCCCc2ncccc2C)nn2c(C3CCOCC3)ncc2c1=O [Example 71],< 1000 nM
2,CCn1c(OCCCc2cccc(C)n2)nn2c(C3CCOCC3)ncc2c1=O [Example 72],< 1000 nM
3,CCn1c(OCCc2ccccc2)nn2c(C3CCOCC3)ncc2c1=O [Example 73],< 1000 nM
4,CCn1c(OCCc2ccccc2F)nn2c(C3CCOCC3)ncc2c1=O [Example 74],< 1000 nM
5,CCn1c(OCCc2cccc(F)c2)nn2c(C3CCOCC3)ncc2c1=O [Example 75],< 1000 nM
6,CCn1c(OCC2(c3ccc(Cl)cc3)CC2)nn2c(C3CCOCC3)ncc2c1=O [Example 76],< 1000 nM
7,CCn1c(OCCc2ccc(-c3ccccc3)cc2)nn2c(C3CCOCC3)ncc2c1=O [Example 77],< 1000 nM
8,CCn1c(OCCc2ccc(C(F)(F)F)cc2)nn2c(C3CCOCC3)ncc2c1=O [Example 78],< 1000 nM
9,CCn1c(OCc2ccc(-c3ccc(Cl)cc3)cc2)nn2c(C3CCOCC3)ncc2c1=O [Example 79],< 1000 nM
10,CCn1c(OCc2ccc(-c3ccc(F)cc3)cc2)nn2c(C3CCOCC3)ncc2c1=O [Example 80],1000 to 10000 nM
11,CCn1c(OCc2ccc(-c3ccc(C)cc3)cc2)nn2c(C3CCOCC3)ncc2c1=O [Example 81],< 1000 nM
12,CCn1c(OCC2(c3ccccc3)CC2)nn2c(C3CCOCC3)ncc2c1=O [Example 82],< 1000 nM
13,CCn1c(OCc2ccc(-c3ccc(OC)cc3)cc2)nn2c(C3CCOCC3)ncc2c1=O [Example 83],< 1000 nM
14,CCn1c(OCc2ccc(-c3ccc(C(F)(F)F)cc3)cc2)nn2c(C3CCOCC3)ncc2c1=O [Example 84],< 1000 nM
15,CCn1c(OCc2ccc(-c3ccc(C#N)cc3)cc2)nn2c(C3CCOCC3)ncc2c1=O [Example 85],< 1000 nM
16,CCn1c(OCC2CCC2)nn2c(C3CCOCC3)ncc2c1=O [Example 86],< 1000 nM
17,CCn1c(OCC2CC(F)(F)C2)nn2c(C3CCOCC3)ncc2c1=O [Example 87],< 1000 nM
18,CCn1c(OCC2CCCC2)nn2c(C3CCOCC3)ncc2c1=O [Example 88],< 1000 nM
19,CCn1c(OCC2CCCCC2)nn2c(C3CCOCC3)ncc2c1=O [Example 89],< 1000 nM
20,CCn1c(OC[C@H]2CC[C@@H](OC)CC2)nn2c(C3CCOCC3)ncc2c1=O [Example 90],< 1000 nM
21,CCn1c(OC(C)C2CCC(F)(F)CC2)nn2c(C3CCOCC3)ncc2c1=O (centres unmarked) [Example 92],< 1000 nM
22,CCn1c(OCCC2CCC(F)(F)CC2)nn2c(C3CCOCC3)ncc2c1=O [Example 93],< 1000 nM

row,SMILES,IC50
1,CCCn1c(OCC2CCC(F)(F)CC2)nn2c(C3CCOCC3)ncc2c1=O [Example 94],< 1000 nM
2,O=c1c2cnc(C3CCOCC3)n2nc(OCC2CCC(F)(F)CC2)n1C1CC1 [Example 95],< 1000 nM
3,CC(C)Cn1c(OCC2CCC(F)(F)CC2)nn2c(C3CCOCC3)ncc2c1=O [Example 96],< 1000 nM
4,O=c1c2cnc(C3CCOCC3)n2nc(OCc2ccc(-c3ccccn3)cc2)n1CC1CC1 [Example 97],< 1000 nM
5,O=c1c2cnc(C3CCOCC3)n2nc(OCCc2ccc(Cl)cc2)n1CC1CC1 [Example 98],< 1000 nM
6,O=c1c2cnc(C3CCOCC3)n2nc(OCc2ccc(F)cc2)n1CC1CC1 [Example 99],< 1000 nM
7,O=c1c2cnc(C3CCOCC3)n2nc(OCC2CCC(F)(F)CC2)n1CC1CC1 [Example 100],< 1000 nM
8,CCOc1nn2c(C3CCOCC3)ncc2c(=O)n1CC1CCC(F)(F)CC1 [Example 102],< 1000 nM
9,CC(C)Oc1nn2c(C3CCOCC3)ncc2c(=O)n1CC1CCC(F)(F)CC1 [Example 103],< 1000 nM
10,O=c1c2cnc(C3CCOCC3)n2nc(OCC2CCC(F)(F)CC2)n1CC1CCC(F)(F)CC1 [Example 104],< 1000 nM
11,COc1nn2c(C3CCOCC3)ncc2c(=O)n1CCC1CCC(F)(F)CC1 [Example 105],< 1000 nM
12,COc1nn2c(C3CCOCC3)ncc2c(=O)n1Cc1ccccc1 [Example 107],< 1000 nM
13,COc1nn2c(C3CCOCC3)ncc2c(=O)n1Cc1ccc(F)cc1 [Example 108],< 1000 nM
14,Cn1c(OCC2CCOCC2)nn2c(C3CCC3)ncc2c1=O [Example 111],< 1000 nM
15,COC(C)c1ncc2c(=O)n(C)c(OCC3CCC(F)(F)CC3)nn12 (centres unmarked) [Example 112],< 1000 nM
16,COc1nn2c(C(C)OC)ncc2c(=O)n1CC1CCC(F)(F)CC1 (centres unmarked) [Example 114],< 1000 nM
17,"Cn1c(OCc2ccc(F)cc2)nn2c(C3CCOCC3)nc(Cl)c2c1=O [Example 117, 5-Chloro-2-[(4-fluorobenzyl)oxy]-3-methyl-7-(tetrahydro-2H-pyran-4-yl)imidazo[5,1-f][1,2,4]triazin-4(3H)-one]",< 1000 nM
18,CCn1c(OCCCc2ccccn2)nn2c(C3CCOCC3)nc(Cl)c2c1=O [Example 118],< 1000 nM
19,"CCn1c(OCC2CCC(F)(F)CC2)nn2c(C3CCOCC3)nc(Cl)c2c1=O [Example 119, 5-chloro-2-[(4,4-difluorocyclohexyl)methoxy]-3-ethyl-7-(tetrahydro-2H-pyran-4-yl)-imidazo[5,1-f][1,2,4]triazin-4(3H)-one]",< 1000 nM
20,CCn1c(OCC2CCC(F)(F)CC2)nn2c(C3CCOCC3)nc(C)c2c1=O [Example 121],< 1000 nM
